# Experimental data taken from paper PMC4536076, “Chemical Library Screening and Structure-Function Relationship Studies Identify Bisacodyl as a Potent and Selective Cytotoxic Agent Towards Quiescent Human Glioblastoma Tumor Stem-Like Cells” (PLoS ONE, 2015).
# Structures can show the parent of a compound that is named as a salt.
# Tested on: quiescent TG1 GSCs
# Conditions: not given
# Experimental: (§1) Proliferating or quiescent TG1 GSCs were seeded (30 000 and 40 000 viable cells/well, respectively) into 96-well opaque bottom plates (Greiner) with the Biomek FX robot (Beckman Coulter). Each compound from the Prestwick Library was then added (final concentration: 50 μM; 1% DMSO). Each molecule was tested once. Negative control wells (12/96 per assay plate) contained cells treated with 1% DMSO (final concentration) and positive control wells (4/96 per assay plate) contained cells treated with the fungal toxin ophiobolin A (Sigma Aldrich) at 50 μM with 1% DMSO. […] Luminescence in each well was measured with the Victor3 plate reader (PerkinElmer).
# (§2) Relative ATP levels in each well were determined by calculating the percentage of luminescent signal in the well with respect to the average signal measured in negative control wells.
# (§3) Primary screen hits were further tested in duplicate, at two concentrations (50 and 5 μM) on proliferating and quiescent TG1 GSCs. Cell plating and treatment with compounds were as for the primary screen. Hit selection/confirmation criteria for quiescent cells were as described above.
row,Compound,Activity on quiescent TG1 GSCs (hit compounds reducing ATP levels)
1,C[C@@H]1[C@H](O)[C@@H](C)/C=C/C=C/CC/C=C/C=C/C=C/C=C/C(O[C@H]2O[C@H](C)[C@@H](O)[C@H](N)[C@@H]2O)CC2O[C@](O)(CC(O)C(O)CCC(O)CC(O)CC(O)CC(=O)O[C@H]1C)CC(O)C2C(=O)O (some centres unmarked) [Nystatine],yes

# Same assay, conditions: primary screen, 50 μM, 24 h
Compound,Activity on quiescent TG1 GSCs (hit compounds reducing ATP levels),Activity on quiescent TG1 CSCs (hit compounds increasing ATP levels)
CCCCCC[C@H]1C(=O)O[C@H](C)[C@H](NC(=O)c2cccc(NC=O)c2O)C(=O)O[C@@H](C)[C@@H]1OC(=O)CC(C)C [Antimycin A],yes,–
CCCCCCC[N+](CC)(CC)CCCCc1ccc(Cl)cc1.Cc1ccc(S(=O)(=O)[O-])cc1 [Clofilium tosylate],yes,–
O=C(O)c1cc(-c2ccc(F)cc2F)ccc1O [Diflunisal],yes,–
C[C@]12CC[C@H](O)C[C@H]1CC[C@@H]1[C@@H]2CC[C@]2(C)[C@@H](C3=CC(=O)OC3)CC[C@]12O [Digitoxigenin],yes,–
COc1cc2nc(N3CCN(C(=O)C4COc5ccccc5O4)CC3)nc(N)c2cc1OC (centres unmarked) [Doxazosin mesylate],yes,–
O=c1c2ccccc2[se]n1-c1ccccc1 [Ebselen],yes,–
Clc1ccc(COC(Cn2ccnc2)c2ccc(Cl)cc2Cl)cc1 (centres unmarked) [Econazole nitrate],yes,–
CCOc1ccc(Cc2nccc3cc(OCC)c(OCC)cc23)cc1OCC [Ethaverine hydrochloride],yes,–
CCc1cc(C(N)=S)ccn1 [Ethionamide],–,yes
O=C(O)c1ccccc1Nc1cccc(C(F)(F)F)c1 [Flufenamic acid],yes,–
Fc1ccc(C(c2ccc(F)cc2)N2CCN(C/C=C/c3ccccc3)CC2)cc1 [Flunarizine dihydrochloride],yes,–
CC(C)C(=O)Nc1ccc([N+](=O)[O-])c(C(F)(F)F)c1 [Flutamide],yes,–
CCCCN(CCCC)CCC(O)c1cc2c(Cl)cc(Cl)cc2c2cc(C(F)(F)F)ccc12 (centres unmarked) [Halofantrine hydrochloride],yes,–
CC[C@H](c1ccc(O)cc1)[C@@H](CC)c1ccc(O)cc1 [Hexestrol],yes,–
c1ccc2c(c1)OCC(C1=NCCN1)O2 (centres unmarked) [Idazoxan hydrochloride],–,yes
CCCCCN(CCCCC)C(=O)C(CCC(=O)[O-])NC(=O)c1ccc(Cl)c(Cl)c1.[Na+] (centres unmarked) [Lorglumide sodium salt],–,yes

Compound,Activity on quiescent TG1 GSCs (hit compounds reducing ATP levels),Activity on quiescent TG1 CSCs (hit compounds increasing ATP levels)
CC[C@H](C)C(=O)O[C@H]1C[C@@H](C)C=C2C=C[C@H](C)[C@H](CC[C@@H]3C[C@@H](O)CC(=O)O3)[C@H]21 [Lovastatin],–,yes
CC[C@@]1([C@H]2O[C@H]([C@H]3O[C@@](O)(CO)[C@H](C)C[C@@H]3C)C[C@H]2C)CC[C@H]([C@@]2(C)CC[C@]3(C[C@H](O)[C@@H](C)[C@@H]([C@H](C)[C@H](OC)[C@@H](C)C(=O)[O-])O3)O2)O1.[Na+] [Monensin sodium salt],yes,–
O=C(Nc1ccc([N+](=O)[O-])cc1Cl)c1cc(Cl)ccc1O [Niclosamide],yes,–
C[C@@H]1O[C@@H](O[C@@H]2C=C3CC[C@@H]4[C@H](CC[C@]5(C)[C@@H](c6ccc(=O)oc6)CC[C@]45O)[C@@]3(C)CC2)[C@H](O)[C@H](O)[C@H]1O [Proscillaridin A],yes,–
Cc1cc(/C=C/c2ccc3cc(N(C)C)ccc3[n+]2C)c(C)n1-c1ccccc1.Cc1cc(/C=C/c2ccc3cc(N(C)C)ccc3[n+]2C)c(C)n1-c1ccccc1.O=C([O-])c1cc2ccccc2c(Cc2c(O)c(C(=O)[O-])cc3ccccc23)c1O [Pyvinium pamoate],yes,–
COC(=O)[C@H]1[C@H]2C[C@@H]3c4[nH]c5cc(OC)ccc5c4CCN3C[C@H]2C[C@@H](OC(=O)/C=C/c2cc(OC)c(OC)c(OC)c2)[C@@H]1OC [Rescinnamin],yes,–
CO[C@H]1/C=C/O[C@@]2(C)Oc3c(C)c(O)c4c(O)c(c(/C=N/N5CCN(C)CC5)c(O)c4c3C2=O)NC(=O)/C(C)=C\C=C\[C@H](C)[C@H](O)[C@@H](C)[C@@H](O)[C@@H](C)[C@H](OC(C)=O)[C@@H]1C [Rifampicin],–,yes
Br.C[N+]1([O-])[C@@H]2CC(OC(=O)[C@H](CO)c3ccccc3)C[C@H]1[C@@H]1O[C@@H]12 (some centres unmarked) [Scopolamin-N-oxide hydrobromide],–,yes
CCC(C)(C)C(=O)O[C@H]1C[C@@H](C)C=C2C=C[C@H](C)[C@H](CC[C@@H]3C[C@@H](O)CC(=O)O3)[C@H]21 [Simvastatin],yes,–
C[C@]12CC[C@H]3[C@@H](CC[C@]4(O)C[C@@H](O)CC[C@]34C=O)[C@@]1(O)CC[C@@H]2C1=CC(=O)OC1 [Strophanthidin],yes,–
C[C@@H]1O[C@@H](O[C@H]2C[C@@H](O)[C@]3(CO)[C@H]4[C@H](O)C[C@]5(C)[C@@H](C6=CC(=O)OC6)CC[C@]5(O)[C@@H]4CC[C@]3(O)C2)[C@H](O)[C@H](O)[C@H]1O.O.O.O.O.O.O.O.O [Strophantine octahydrate],yes,–
Cc1c(Cl)cccc1Nc1ccccc1C(=O)O [Tolfenamic acid],yes,–
NC[C@H]1CC[C@H](C(=O)O)CC1 [Tranexamic acid],–,yes
CN1C(=O)OC(C)(C)C1=O [Trimethadione],–,yes
(S)-(-)-Atenolol,–,yes
Meclocycline sulfosalicylate,yes,–

# Tested on: proliferating TG1 GSCs
# Conditions: primary screen, 50 μM, 24 h
# Experimental: as §1, §2, §3
Compound,Activity on proliferating TG1 CSCs (hit compounds increasing ATP levels),Activity on proliferating TG1 GSCs (hit compounds reducing ATP levels)
CN(C)c1nc(N(C)C)nc(N(C)C)n1 [Altretamine],yes,–
[H]/N=C(\N/C(=N/[H])NCCCCCCNC(=N)NC(=N)Nc1ccc(Cl)cc1)Nc1ccc(Cl)cc1 [Chlorhexidine],–,yes
Oc1c(I)cc(Cl)c2cccnc12 [Clioquinol],–,yes
Nc1ncnc2c1ncn2[C@@H]1O[C@@H]2COP(=O)(O)O[C@H]2[C@H]1O [Cyclic AMP],yes,–
C[C@H]1O[C@@H](O[C@H]2[C@@H](O)C[C@H](O[C@H]3[C@@H](O)C[C@H](O[C@H]4CC[C@@]5(C)[C@H](CC[C@@H]6[C@@H]5C[C@@H](O)[C@]5(C)[C@@H](C7=CC(=O)OC7)CC[C@]65O)C4)O[C@@H]3C)O[C@@H]2C)C[C@H](O)[C@@H]1O [Digoxin],–,yes
CN(C)[C@@H]1C(O)=C(C(N)=O)C(=O)[C@@]2(O)C(O)=C3C(=O)c4c(O)ccc(Cl)c4[C@@H](O)[C@H]3C[C@@H]12.Cl [Dimeclocycline hydrochloride],–,yes
CC(C(=O)O)c1ccc(N2Cc3ccccc3C2=O)cc1 (centres unmarked) [Indoprofen],–,yes
Cc1cccc(C)c1NC(=O)CN1CCN(CCCC(c2ccc(F)cc2)c2ccc(F)cc2)CC1 [Lidoflazine],–,yes
CN1CCCC(CC2c3ccccc3Sc3ccccc32)C1 (centres unmarked) [Metixene hydrochloride],–,yes
CNCCC=C1c2ccccc2C=Cc2ccccc21 [Norcyclobenzaprine],–,yes
OCCN1CCN(CCCN2c3ccccc3Sc3ccc(Cl)cc32)CC1 [Perphenazine],–,yes
CC(COc1ccccc1)N(CCCl)Cc1ccccc1 (centres unmarked) [Phenoxybenzamine hydrochloride],yes,–
CCN1CCN(C(=O)N[C@@H](C(=O)N[C@@H]2C(=O)N3[C@@H]2SC(C)(C)[C@@H]3C(=O)O)c2ccccc2)C(=O)C1=O [Piperacillin sodium salt],–,yes
COc1cc(/C=C/C(=O)N2CCC=CC2=O)cc(OC)c1OC [Piperlongumine],–,yes
CCC1(c2ccccc2)C(=O)NCNC1=O [Primidone],yes,–
CC(C)(Sc1cc(C(C)(C)C)c(O)c(C(C)(C)C)c1)Sc1cc(C(C)(C)C)c(O)c(C(C)(C)C)c1 [Probucol],yes,–
CNCCCC1c2ccccc2C=Cc2ccccc21 [Protriptyline hydrochloride],–,yes
